According to patent publication US7820697B2, “Compositions and method for reducing TNFα levels” (Celgene Corporation, priority 1998, dated 2010):

Row | melting point [°C] | Structure (SMILES)
1 | 235 to 236.5 | CCc1cccc2c1C(=O)N(C1CCC(=O)NC1=O)C2=O (stereo not drawn) [Example 6, 2-(2,6-Dioxo(3-piperidyl))-4-ethylisoindoline-1,3-dione]
2 | 214.5 to 216.5 | CN(C)c1cccc2c1C(=O)N(C1CCC(=O)NC1=O)C2=O (stereo not drawn) [Example 8, 4-Dimethylamino-2-(2,6-dioxo(3-piperidyl))isoindoline-1,3-dione]
3 | 248 to 250 | Cc1cccc2c1C(=O)N(C1(C)CCC(=O)NC1=O)C2=O (stereo not drawn) [Example 10, 4-Methyl-2-(2,6-dioxo-3-methyl-(3-piperidyl))isoindoline-1,3-dione]
